In patent US7863239B2, “Binding compounds, immunogenic compounds and peptidomimetics” (Pepscan Systems B.V., priority 2005, dated 2011):
Entries after “also recorded” stand apart in the source; their conditions may differ. *1 amine or outer side, *2 acyl side, *3 side chain or, on linkers, in order; H or OH if unused. Bridges are numbered along the chain shown (N, C = ends). Where no end group is shown, it is not given here. T4 = 1,2,4,5-tetrabromodurene scaffold; mXylylene = c1cc(C[*:1])cc(C[*:2])c1

Key:
FSH = assay: Vaccination of rats with FSH-derived peptides, antisera analyzed in FSH-binding ELISA; conditions: rat, in vivo
Description: Peptides were synthesized by solid-phase peptide synthesis using a 4-(2′,4′-dimethoxyphenyl-Fmoc-aminomethyl)-phenoxy (RinkAmide) resin (BACHEM, Germany) on a Syro-synthesizer (MultiSynTech, Germany). All amino acids were purchased and used as N-alpha-(Fmoc) protected with side-chain functionalities protected as N-t-Boc (KW), O-t-Bu (DESTY), N-Trt (HNQ), S-Trt (C), or N-Pbf (R) groups. A coupling protocol using a 6.5-fold excess of HBTU/HOBt/amino acid/DIPEA (1:1:1:2) in NMP with a 30 min. activation time using double couplings was employed. […] Subsequently, female Wistar rats were immunized on day 0 with 400 uL of a ˜2.5 mg/mL of the peptide or peptide-T-construct in PBS/CFA 1:1 (v/v) (PBS=Phosphate-Buffered Saline, CFA=Complete Freund's Adjuvance), followed by a booster (same quantity and concentration) at 4 weeks. Subsequently, the anti-peptide titers were determined after 6 weeks to check for immune response and finally the rats were bleeded after 8 weeks and the antisera collected. Antisera were analyzed in an FSH-binding ELISA (Greiner, PS; GDA-coating with 1 μg/mL of FSH (Biotrend)) using 2,2′-azine-di(ethylbenzthiazoline sulfonate) (ABTS) in combination with a peroxidase-labeled Goat-anti-rat serum as second antibody. […]

anti-CCR5 antibody 2D7 = assay: Screening of peptide microarrays with anti-CCR5 antibody 2D7; assay type: binding; conditions: absorbance at 405 nm measured using a CCD-camera; for 2D7 (0.1 μg/ml): mAb 2D7 at 0.1 μg/ml on peptide microarray; for 2D7 (1 μg/ml): mAb 2D7 at 1 μg/ml on peptide microarray; for 2D7 (10 μg/ml): mAb 2D7 at 10 μg/ml on peptide microarray
Description: Grafting of the polypropylene support with polyacrylic acid was performed by irradiating the support in a 6% acrylic acid solution containing CUS04 using gamma radiation at a dose of 12 kGy. The grafted solid support containing carboxylic acid groups was subsequently reacted with t-butyloxycarbonyl-hexamethylenediamine (Boc-HMDA) using dicyclohexylcarbodiimide (DCC) with N-hydroxybenzotriazole (HOBt) and subsequent cleavage of the Boc-groups using trifluoroacetic acid (TFA). The peptides were synthesized using standard Fmoc-chemistry and, after acylation, deprotected by reaction with TFA (15 ml/g resin) containing 13.3% (w) phenol, 5% (v) thioanisole, 2.5% (v) 1,2-ethanedithiol, and 5% (v) milliQ-H2O for 2-4 hrs at RT. After washing 3× with H2O, the peptide microarrays were treated with excess of a 1.0 mM solution of either mP2 or T3 in 20 mM amm. bicarbonate (pH 7.8)/acetonitril (1:1 v/v) for 30-60 min. at room temperature, followed by 3× washing with 50% ACN/H2O. Then, the microarrays were washed with excess of millipore H2O and sonicated in disrupt-buffer (1% SDS/0.1% β-mercaptoethanol (BME) in phosphate buffered saline (PBS), pH 7.2) at 70° C. for 30 min. followed by sonication in millipore H2O for another 45 min. Synthese Van Scaffolds: The scaffolds are commercially available by Aldrich. Screening of Micro-Arrays with Antibodies Microarrays were pretreated with PBS for 30 min. followed by precoating with incubation buffer (PBS containing 5% ovalbumin, 5% horse serum and 1% Tween-80) for 1 hour. Then, the microarrays were incubated with mAb (typically 1/1000, diluted in incubation buffer) overnight at 4° C. After washing (3×10 min.) with PBS/Tween-80 (0.05%), the peptides were incubated with peroxidase labeled rabbit anti-mouse antibody for 1 hr at 25° C. (rampo, 1/1000; Dako, Glostrup, Denmark) and subsequently, after washing again (3×10 min.) with PBS/Tween-80 (0.05%), incubated with the peroxidase substrate 2,2′-azino-di-3-ethylbenzthiazoline sulfonate (ABTS; 50 mg in 100 ml 0.1M citric acid-sodium phosphate (McIlvaine) buffer (pH 4.0) containing 20 ul 30% H2O2). After 1 h the absorbance (at 405 nm) was measured using a CCD-camera (XC-77RR, Sony, Japan). Bound mAb was removed by sonication in disrupt-buffer as described above. The micro-arrays were re-used for screening approximately 10-15 times. CCR5 CCR5 is a […] co-receptor that is used by HIV for cellular entry. Antibodies specifically directed against CCR5 would therefore be suitable for counteracting cellular entry by HIV. However, immunization with whole CCR5 is problematic since CCR5 is a transmembrane protein. In order to be capable of eliciting CCR5-specific antibodies, immunogenic compounds based on CCR5 are therefore desired. In order to design suitable test compounds, 4 CCR5 sequences were taken into account: one N-terminus domain (Nt) and three extracellular loop domains extended with about 1-6 adjacent amino acid residues of the transmembrane domains (N-terminally as well as C-terminally). These extracellular loop domains are called e1, e2 and e3. The primary sequences of the considered domains are as follows (starting N-terminally):
In the first series of peptides (first row of the above Table), the C-terminal amino acids K, I, N, V, K, Q, I, and A of the Nt sequence were selected. Subsequently, N-terminal flanking sequences with a length of 21 amino acid residues were selected. […] Subsequently, peptides were produced containing one of these flanking sequences. Likewise, in the second series of peptides (second row of the above Table), the C-terminal amino acids P, C, Q, K, I, N, V and K of the Nt sequence were selected. Subsequently, N-terminal flanking sequences with a length of 18 amino acid residues were selected. […] Subsequently, peptides were produced containing one of these flanking sequences. […]

Substance	immune response against native FSH in rats (in words) (FSH)	immune response against native FSH in rats (in words) (FSH; listed as TFKELVYETCRVPGAAHHADSLCTYPVATQAH cyclized onto m-T2)	2D7 (0.1 μg/ml) (anti-CCR5 antibody 2D7)	2D7 (1 μg/ml) (anti-CCR5 antibody 2D7)	2D7 (10 μg/ml) (anti-CCR5 antibody 2D7)
*KIQKTATFKELVYETCRVPGAAHHADSLCTYPVATQAHAGK# (SEQ ID NO: 120) T4 (KIQKTATFKELVYETCRVPGAAHHADSLCTYPVATQAHAGK-NH2; linker 16-29 via T4 (inferred)) [No. 9 (Table 4B), FSH-derived CLIPS peptide]	Good results	–	–	–	–
*TFKELVYETCRVPGAAHHADSLCTYPVATQAH# (SEQ ID NO: 119) + m-T2 (TFKELVYETCRVPGAAHHADSLCTYPVATQAH-NH2; linker 10-23 via mXylylene (inferred)) [No. 4 (Table 4B), FSH-derived CLIPS peptide]	–	production of antibodies that are reactive with native FSH; also recorded: very high antibody titre	–	–	–
CAQWDFGNCQKEGLHYTC (SEQ ID NO: 109) (not fully specified; bound to P2 or T3 scaffold) [compound 1158]	–	–	132	416	2377
CFGNTMGGGRSQKEGLHYTC (SEQ ID NO: 108) (not fully specified; bound to P2 or T3 scaffold) [compound 719]	–	–	113	678	2819
CNTMGGGRSQKEGLHYTC (SEQ ID NO: 106) (not fully specified; bound to P2 or T3 scaffold) [compound 702]	–	–	68	1580	2787
CQKEGLHYC (SEQ ID NO: 102) (not fully specified; bound to P2 or T3 scaffold) [compound 443]	–	–	148	2636	3090
CQKEGLHYTC (SEQ ID NO: 101) (not fully specified; bound to P2 or T3 scaffold) [compound 447]	–	–	261	2706	2943
CQWDFGNTCQKEGLHYTC (SEQ ID NO: 107) (not fully specified; bound to P2 or T3 scaffold) [compound 1159]	–	–	213	1153	2636
CRSQKEGLHYTC (SEQ ID NO: 105) [compound 450]	–	–	107	2364	2852
CSQKEGLHYTC (SEQ ID NO: 103) (not fully specified; bound to P2 or T3 scaffold) [compound 449]	–	–	99	2606	2889
CWDFGNTMCQKEGLHYTC (SEQ ID NO: 104) (not fully specified; bound to P2 or T3 scaffold) [compound 1160]	–	–	315	2469	2765
